Experimental findings from ChEMBL document CHEMBL1129815, “Ester prodrugs of ampicillin tailored for intracellular accumulation” (Bioorg Med Chem Lett, 1997) are described below.

In brackets after ≈: the same amount, converted by molar mass.

The test system of one data set is Staphylococcus aureus. Description: The minimum inhibition concentration (MIC) against Staphylococcus aureus after hydrolysis 24 hr in phosphate buffer was determined. The class given is functional.
Conditions: not given
On to `CC1(C)S[C@@H]2[C@H](NC(=O)[C@H](N)c3ccccc3)C(=O)N2[C@H]1C(=O)OCN1C(=O)c2ccccc2C1=O` [listing 1 of 2 here], for which the lowest concentration to inhibit growth (MIC) was 0.53 µM (≈ 0.27 µg/mL).
On to `CC1(C)S[C@@H]2[C@H](NC(=O)[C@H](N)c3ccccc3)C(=O)N2[C@H]1C(=O)OCN1C(=O)CC(=C2CCCCC2)C1=O` [listing 1 of 2 here], for which the lowest concentration to inhibit growth (MIC) was 1.16 µM (≈ 0.627 µg/mL).
On the same count and under the same terms, for `CC(C)(C)C(=O)OCOC(=O)[C@@H]1N2C(=O)[C@@H](NC(=O)C(N)c3ccccc3)[C@H]2SC1(C)C` (single isomer, unassigned) [PIVAMPICILLIN] the value was 0.65 µM (≈ 0.301 µg/mL).

Test system in the next data set: not listed separately
Nature of the data set: Half-life in 0.02 M phosphate buffer, 0.15 M NaCl, at a pH of 7.4, at 37 degree Celsius was determined. The class given is ADME. The conditions noted are these: pH 7.4.
As to `CC1(C)S[C@@H]2[C@H](NC(=O)[C@H](N)c3ccccc3)C(=O)N2[C@H]1C(=O)OCN1C(=O)CCC1=O`, the half-life (in general, how long it takes for the measured level to halve) stood at 2.5 h.
On the same count and under the same terms, for `CC1(C)S[C@@H]2[C@H](NC(=O)[C@H](N)c3ccccc3)C(=O)N2[C@H]1C(=O)OCn1c(=O)oc2ccccc21` the value was 2.5 h.
Same read-out and setting: as for `CC1(C)S[C@@H]2[C@H](NC(=O)[C@H](N)c3ccccc3)C(=O)N2[C@H]1C(=O)OCN1C(=O)c2ccccc2C1=O` [listing 2 of 2 here], the figure is 1.08 h; as for `CC1(C)S[C@@H]2[C@H](NC(=O)[C@H](N)c3ccccc3)C(=O)N2[C@H]1C(=O)OCOc1ccccc1`, 3.58 h.
The same measure, in the same setting: for `CC1(C)S[C@@H]2[C@H](NC(=O)[C@H](N)c3ccccc3)C(=O)N2[C@H]1C(=O)OCN1C(=O)CCCC1=O` the value was 3 h; for `CC(C)(C)C(=O)OCOC(=O)[C@@H]1N2C(=O)[C@@H](NC(=O)C(N)c3ccccc3)[C@H]2SC1(C)C` (single isomer, unassigned) [PIVAMPICILLIN], 2 h; for `CC1(C)S[C@@H]2[C@H](NC(=O)[C@H](N)c3ccccc3)C(=O)N2[C@H]1C(=O)OCN1C(=O)CC(=C2CCCCC2)C1=O` [listing 2 of 2 here], 5.13 h.
Molecule `CC1(C)S[C@@H]2[C@H](NC(=O)[C@H](N)c3ccccc3)C(=O)N2[C@H]1C(=O)OCN1C(=O)c2ccccc2S1(=O)=O` came in with a half-life of 1.08 h.
